Each block holds one compound with its values, some of them ahead of it. Activity calls are given as the source filed them. The calls are words filed in the database; no cut-off is given here.
Assays:
[1] = target: T1, Serine/threonine-protein kinase B-raf (Homo sapiens, UniProt P15056, V600E); experiment: Inhibition of raf kinase in human A375 cells assessed as decrease in MEK-mediated ERK phosphorylation after 3 hrs using 3,3',5,5'-tetramethylbenzidine liquid substrate system; type: cell-based; conditions: a-375
T1 sequence (P15056 2-766 V600E limits assumed): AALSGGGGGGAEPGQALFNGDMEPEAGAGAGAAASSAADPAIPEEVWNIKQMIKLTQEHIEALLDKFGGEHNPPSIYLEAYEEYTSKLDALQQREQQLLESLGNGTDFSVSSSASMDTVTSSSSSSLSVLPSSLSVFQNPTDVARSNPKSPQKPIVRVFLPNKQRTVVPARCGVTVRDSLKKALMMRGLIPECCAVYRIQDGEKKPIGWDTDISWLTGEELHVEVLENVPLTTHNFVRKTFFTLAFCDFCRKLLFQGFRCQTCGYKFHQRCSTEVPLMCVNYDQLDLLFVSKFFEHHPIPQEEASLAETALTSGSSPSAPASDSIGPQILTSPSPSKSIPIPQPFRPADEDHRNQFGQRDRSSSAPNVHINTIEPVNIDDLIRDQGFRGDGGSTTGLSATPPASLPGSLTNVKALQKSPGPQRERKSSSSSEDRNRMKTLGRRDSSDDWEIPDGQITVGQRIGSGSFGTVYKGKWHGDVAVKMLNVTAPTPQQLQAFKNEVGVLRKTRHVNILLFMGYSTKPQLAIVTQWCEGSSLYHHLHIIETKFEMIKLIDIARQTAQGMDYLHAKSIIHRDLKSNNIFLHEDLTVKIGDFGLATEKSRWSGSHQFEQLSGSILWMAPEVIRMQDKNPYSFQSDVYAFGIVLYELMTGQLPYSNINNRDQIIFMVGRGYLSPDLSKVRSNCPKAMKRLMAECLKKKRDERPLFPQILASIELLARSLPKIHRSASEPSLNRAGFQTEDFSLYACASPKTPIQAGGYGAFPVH

[2] = target: T1, Serine/threonine-protein kinase B-raf
[3] = target: RAF proto-oncogene serine/threonine-protein kinase (Homo sapiens, UniProt P04049); experiment: Inhibition of C-Raf assessed as reduction in [33P]ATP incorporation into biotinylated substrate peptide after 3 hrs by flash plate assay
Chain of RAF proto-oncogene serine/threonine-protein kinase (P04049 whole entry): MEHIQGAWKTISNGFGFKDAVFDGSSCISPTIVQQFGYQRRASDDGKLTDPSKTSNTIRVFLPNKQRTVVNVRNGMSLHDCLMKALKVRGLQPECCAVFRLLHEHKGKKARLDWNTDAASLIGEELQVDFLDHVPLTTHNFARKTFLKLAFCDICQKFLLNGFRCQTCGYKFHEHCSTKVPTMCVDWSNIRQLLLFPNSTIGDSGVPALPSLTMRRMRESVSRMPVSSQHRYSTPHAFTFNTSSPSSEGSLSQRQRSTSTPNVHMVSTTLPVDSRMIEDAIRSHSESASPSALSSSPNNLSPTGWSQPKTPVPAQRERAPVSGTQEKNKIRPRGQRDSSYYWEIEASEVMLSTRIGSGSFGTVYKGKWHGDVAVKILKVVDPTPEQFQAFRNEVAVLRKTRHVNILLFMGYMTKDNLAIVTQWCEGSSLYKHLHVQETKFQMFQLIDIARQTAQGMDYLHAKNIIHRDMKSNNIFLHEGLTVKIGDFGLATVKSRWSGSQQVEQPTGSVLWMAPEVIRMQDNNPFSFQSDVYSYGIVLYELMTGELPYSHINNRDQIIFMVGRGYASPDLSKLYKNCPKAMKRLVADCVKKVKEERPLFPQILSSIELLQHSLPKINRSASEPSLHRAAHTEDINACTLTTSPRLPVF

[4] = AUC (0 to 24 hrs) in mouse at 10 mg, po in 20% HPbCD vehicle; type: ADME, organism-based; parameters: dose 10 mg, time < 24 hr, route oral; conditions: plasma
Mus musculus [5] = experiment: Volume of distribution at steady state in mouse at 1 mg/kg, iv or 10 mg, po; type: ADME, organism-based; parameters: dose 1 mg/kg, route oral; conditions: in vivo
[6] = AUC (0 to 24 hrs) in mouse at 10 mg, po in 10% HPbCD vehicle; type: ADME, organism-based; parameters: time < 24 hr, dose 10 mg, route oral; conditions: plasma
Mus musculus [7] = experiment: Plasma clearance in mouse at 1 mg/kg, iv and 10 mg, po in 10% HPbCD vehicle; type: ADME, organism-based; parameters: dose 1 mg/kg, route oral; conditions: in vivo
[8] = Oral bioavailability in mouse at 10 mg; type: ADME, organism-based; conditions: in vivo
[9] = Plasma clearance in mouse at 10 mg, po in 20% HPbCD vehicle; type: ADME, organism-based
[10] = Plasma concentration in mouse xenografted with human A375M cells at 75 mg/kg, po administered as single dose in 10% HPbCD measured 24 hrs post dose by LC/MS/MS; type: ADME, organism-based; parameters: dose 75 mg/kg, route oral
[11] = Inhibition of MEK
[12] = Plasma concentration in mouse xenografted with human A375M cells at 75 mg/kg, po administered as single dose in 10% HPbCD measured 4 hrs post dose by LC/MS/MS; type: ADME, organism-based; parameters: dose 75 mg/kg, route oral
[13] = Plasma concentration in mouse xenografted with human A375M cells at 75 mg/kg, po administered as single dose in 10% HPbCD measured 8 hrs post dose by LC/MS/MS; type: ADME, organism-based; parameters: dose 75 mg/kg, route oral
Mus musculus [14] = experiment: Inhibition of ERK phosphorylation in human A375M cells xenografted in mouse at 75 mg/kg, po administered as single dose in 10% HPbCD measured 24 hrs post dose by Li-Cor quantitative Western blot analysis relative to control; type: functional
Mus musculus [15] = experiment: Inhibition of ERK phosphorylation in human A375M cells xenografted in mouse at 75 mg/kg, po administered as single dose in 10% HPbCD measured 4 hrs post dose by Li-Cor quantitative Western blot analysis relative to control; type: functional
Mus musculus [16] = experiment: Inhibition of ERK phosphorylation in human A375M cells xenografted in mouse at 75 mg/kg, po administered as single dose in 10% HPbCD measured 8 hrs post dose by Li-Cor quantitative Western blot analysis relative to control; type: functional
Homo sapiens [17] = experiment: Antitumor activity against human A375M cells xenografted mouse model assessed as partial tumor regression at 75 mg/kg, po qd for 21 days; type: functional, organism-based; parameters: dose 75 mg/kg
[18] = Inhibition of PDGFR
[19] = Plasma concentration in mouse xenografted with human A375M cells at 100 mg/kg, po administered as single dose in 10% HPbCD measured 24 hrs post dose by LC/MS/MS; type: ADME, organism-based; parameters: dose 100 mg/kg, route oral
Mus musculus [20] = experiment: Inhibition of ERK phosphorylation in human A375M cells xenografted in mouse at 100 mg/kg, po administered as single dose in 10% HPbCD measured 8 hrs post dose by Li-Cor quantitative Western blot analysis relative to control; type: functional
Homo sapiens [21] = experiment: Antitumor activity against human A375M cells xenografted mouse model assessed as partial tumor regression at 100 mg/kg, po qd for 21 days; type: functional, organism-based; parameters: dose 100 mg/kg
Plasma = experiment: Plasma concentration in mouse assessed as (R)-3-((methyl amino)methyl)-N-(7-(7-oxo-5,6,7,8-tetrahydro-1,8-naphthyridin-4-yloxyl)-1,2,3,4-tetrahydronaphthalen-2-yl )-5-(trifluoromethyl)benzamide at 10 mg, po; type: ADME, organism-based; conditions: in vivo
Mus musculus [22] = experiment: Inhibition of ERK phosphorylation in human A375M cells xenografted in mouse at 100 mg/kg, po administered as single dose in 10% HPbCD measured 4 hrs post dose by Li-Cor quantitative Western blot analysis relative to control; type: functional
Mus musculus [23] = experiment: Inhibition of ERK phosphorylation in human A375M cells xenografted in mouse at 100 mg/kg, po administered as single dose in 10% HPbCD measured 24 hrs post dose by Li-Cor quantitative Western blot analysis relative to control; type: functional
[24] = Plasma concentration in mouse xenografted with human A375M cells at 100 mg/kg, po administered as single dose in 10% HPbCD measured 8 hrs post dose by LC/MS/MS; type: ADME, organism-based; parameters: dose 100 mg/kg, route oral
[25] = Plasma concentration in mouse xenografted with human A375M cells at 100 mg/kg, po administered as single dose in 10% HPbCD measured 4 hrs post dose by LC/MS/MS; type: ADME, organism-based; parameters: dose 100 mg/kg, route oral

SMILES: CC(C)(N)c1cc(NC(=O)[C@H]2CCc3ccc(Oc4ccnc5c4CCC(=O)N5)cc3C2)cc(C(F)(F)F)c1
- IC50 [1]: 79 nM

SMILES: CC(=O)Nc1cc(Oc2ccc3c(c2)C[C@@H](C(=O)Nc2cc(CN)cc(C(F)(F)F)c2)CC3)ccn1
- IC50 [3]: 6 nM

SMILES: CNCc1cc(C(=O)N[C@@H]2CCc3ccc(Oc4ccnc5c4CCC(=O)N5)cc3C2)cc(C(F)(F)F)c1
- Vdss (Mus musculus [5]): 0.75 L/kg
- AUC(0-t) at 24 h [6]: 12.4 µM·h
- CL (Mus musculus [7]): 12.2 mL/min/kg
- bioavailability [8]: 50%

SMILES: CNC(=O)c1cc(Oc2ccc3c(c2)CC(C(=O)Nc2ccc(Cl)c(C(F)(F)F)c2)CC3)ccn1 (racemic)
- IC50 [1]: 2900 nM
- IC50 [2]: 32 nM
- IC50 [3]: 28 nM

SMILES: NCc1cc(NC(=O)C2CCc3ccc(Oc4ccnc(NC(=O)C5CC5)c4)cc3C2)cc(C(F)(F)F)c1 (stereo unspecified)
- IC50 [1]: 150 nM
- Vdss (Mus musculus [5]): 6.4 L/kg
- IC50 [2]: 8 nM
- AUC(0-t) at 24 h [4]: 0.58 µM·h
- CL/F [9]: 6.67 mL/min/kg
- IC50 [3]: 6.2 nM
- bioavailability [8]: 1.9%

SMILES: CC(C)NCc1cc(NC(=O)[C@H]2CCc3ccc(Oc4ccnc5c4CCC(=O)N5)cc3C2)cc(C(F)(F)F)c1
- IC50 [1]: 110 nM
- Vdss (Mus musculus [5]): 3.87 L/kg
- IC50 [2]: 3.3 nM
- AUC(0-t) at 24 h [6]: 20.7 µM·h
- CL (Mus musculus [7]): 5.33 mL/min/kg
- bioavailability [8]: 20%

SMILES: CN(C)Cc1cc(C(=O)N[C@@H]2CCc3ccc(Oc4ccnc5c4CCC(=O)N5)cc3C2)cc(C(F)(F)F)c1
- Vdss (Mus musculus [5]): 0.75 L/kg
- AUC(0-t) at 24 h [6]: 98.6 µM·h
- concentration at 24 h [19]: 0.4 µM
- IC50 [11]: > 10000 nM
- inhibition in vivo at 100 mg/kg (Mus musculus [20]): 92%
- CL (Mus musculus [7]): 3.83 mL/min/kg
- Activity (Homo sapiens [21]): Active
- Drug uptake (Plasma): 30%
- inhibition in vivo at 100 mg/kg (Mus musculus [22]): 93%
- inhibition in vivo at 100 mg/kg (Mus musculus [23]): 72%
- concentration at 8 h [24]: 29 µM
- bioavailability [8]: 100%
- concentration at 4 h [25]: 28 µM
- IC50 [18]: 1100 nM

SMILES: CNC(=O)c1cc(Oc2ccc3c(c2)CC(C(=O)Nc2ccc(CN)c(C(F)(F)F)c2)CC3)ccn1 (stereo unspecified)
- IC50 [1]: 5000 nM
- IC50 [2]: 26 nM
- IC50 [3]: 16 nM

Further lines, with some results ahead:

- IC50 [1]: 1100 nM
- IC50 [2]: 3.2 nM
SMILES: CN(C)Cc1cc(C(=O)N[C@H]2CCc3ccc(Oc4ccnc(NC(=O)C5CC5)c4)cc3C2)cc(C(F)(F)F)c1

- IC50 [1]: 1400 nM
- IC50 [2]: 20 nM
- IC50 [3]: 11 nM
SMILES: CNC(=O)c1cc(Oc2ccc3c(c2)CC(C(=O)Nc2cc(CN)cc(C(F)(F)F)c2)CC3)ccn1 (stereo unspecified)

- IC50 [1]: 190 nM
- IC50 [2]: 5 nM
- AUC(0-t) at 24 h [4]: 15.6 µM·h
- IC50 [3]: 4.6 nM
SMILES: CC(C)NCc1cc(NC(=O)C2CCc3ccc(Oc4ccnc(NC(=O)C5CC5)c4)cc3C2)cc(C(F)(F)F)c1 (stereo unspecified)

- IC50 [1]: > 25000 nM
- IC50 [2]: 47 nM
- IC50 [3]: 9 nM
SMILES: CNC(=O)c1cc(Oc2cccc(CCC(=O)Nc3ccc(Cl)c(C(F)(F)F)c3)c2)ccn1

- IC50 [1]: 130 nM
- IC50 [2]: 5 nM
- IC50 [3]: 4.5 nM
SMILES: NCc1cc(NC(=O)[C@H]2CCc3ccc(Oc4ccnc(NC(=O)C5CC5)c4)cc3C2)cc(C(F)(F)F)c1

- concentration at 24 h [10]: 3 µM
- Vdss (Mus musculus [5]): 3.93 L/kg
- AUC(0-t) at 24 h [6]: 35.9 µM·h
- IC50 [11]: 1400 nM
- concentration at 4 h [12]: 23 µM
- CL (Mus musculus [7]): 7.33 mL/min/kg
- concentration at 8 h [13]: 27 µM
- bioavailability [8]: 85%
- IC50 [18]: 47 nM
SMILES: CC(C)(N)c1cc(C(=O)N[C@@H]2CCc3ccc(Oc4ccnc5c4CCC(=O)N5)cc3C2)cc(C(F)(F)F)c1
- inhibition in vivo at 75 mg/kg (Mus musculus [14]): 83%
- inhibition in vivo at 75 mg/kg (Mus musculus [15]): 87%
- inhibition in vivo at 75 mg/kg (Mus musculus [16]): 90%
- Activity (Homo sapiens [17]): Active

- IC50 [1]: 130 nM
- Vdss (Mus musculus [5]): 6.07 L/kg
- IC50 [2]: 4 nM
- AUC(0-t) at 24 h [4]: 2.87 µM·h
- CL/F [9]: 23.5 mL/min/kg
- IC50 [3]: 3.3 nM
- bioavailability [8]: 27%
SMILES: CN(C)Cc1cc(NC(=O)[C@H]2CCc3ccc(Oc4ccnc(NC(=O)C5CC5)c4)cc3C2)cc(C(F)(F)F)c1

- IC50 [1]: 70 nM
- Vdss (Mus musculus [5]): 2.19 L/kg
- IC50 [2]: 2.9 nM
- AUC(0-t) at 24 h [6]: 0.51 µM·h
- CL (Mus musculus [7]): 35.7 mL/min/kg
- bioavailability [8]: 22%
SMILES: CN(C)Cc1cc(C(=O)N[C@@H]2CCc3ccc(Oc4ccnc(NC(=O)C5CC5)c4)cc3C2)cc(C(F)(F)F)c1

- IC50 [1]: 780 nM
- IC50 [2]: 6 nM
- IC50 [3]: 6 nM
SMILES: NCc1cc(NC(=O)[C@@H]2CCc3ccc(Oc4ccnc(NC(=O)C5CC5)c4)cc3C2)cc(C(F)(F)F)c1

- IC50 [1]: > 25000 nM
- IC50 [2]: 61 nM
- IC50 [3]: 10 nM
SMILES: CNC(=O)c1cc(Oc2ccc(CCC(=O)Nc3ccc(Cl)c(C(F)(F)F)c3)cc2)ccn1

— ChEMBL document CHEMBL1687927, “Design and optimization of potent and orally bioavailable tetrahydronaphthalene Raf inhibitors” (J Med Chem, 2011)
